Experimental data: ChEMBL document CHEMBL1800066 (J Med Chem, 2011)
≈ marks a conversion by molar mass, not a printed value. Calls of active or inactive are those of the source. The rule behind the calls is not given here.

What was measured:
[1] = system: Mus musculus; experiment: Inhibition of Akt phosphorylation at S473 in human GTL16 cells xenografted in CD1 nu/nu mouse at 10 to 100 mg/kg, po BID measured after 4 hrs by immunostaining assay; assay type: functional, organism-based
[2] = biological target: Vascular endothelial growth factor receptor 1 (Homo sapiens, UniProt P17948); experiment: Inhibition of human Flt1
[3] = system: Mus musculus; experiment: Toxicity in human GTL16 cells xenografted CD1 nu/nu mouse assessed as change in median body weight at 200 mg/kg, po QD; assay type: organism-based; parameters: dose 200 mg/kg, route oral; conditions: in vivo
[4] = biological target: Aurora kinase A (Homo sapiens, UniProt O14965); experiment: Inhibition of human Aurora A
[5] = biological target: T1, Hepatocyte growth factor receptor (Homo sapiens, UniProt P08581); experiment: Inhibition of recombinant human c-MET phosphorylation at C-terminal Y1349
[6] = biological target: Cytochrome P450 2C9 (Homo sapiens, UniProt P11712); experiment: Inhibition of CYP2C9; assay type: ADME
[7] = biological target: Hepatocyte growth factor receptor (Homo sapiens, UniProt P08581, M1250T)
[8] = biological target: Receptor-type tyrosine-protein kinase FLT3 (Homo sapiens, UniProt P36888); experiment: Inhibition of human Flt3
[9] = biological target: T1, Hepatocyte growth factor receptor; experiment: Inhibition of recombinant human c-MET phosphorylation at C-terminal Y1230
[10] = biological target: Macrophage-stimulating protein receptor (Homo sapiens, UniProt Q04912); experiment: Inhibition of human Ron
[11] = Cmax in rat at 5 mg/kg, po; assay type: ADME, organism-based; parameters: dose 5 mg/kg, route oral; conditions: in vivo
[12] = Plasma clearance in monkey at 0.25 mg/kg, iv; assay type: ADME, organism-based, Macaca mulatta; parameters: dose 0.25 mg/kg, route intravenous; conditions: rhesus monkey
[13] = biological target: Tyrosine-protein kinase Mer (Homo sapiens, UniProt Q12866); experiment: Inhibition of human Mer
[14] = AUC (0 to infinity) in rat at 5 mg/kg, po; assay type: ADME, organism-based; parameters: dose 5 mg/kg, route oral, time infinity; conditions: plasma
[15] = biological target: T1, Hepatocyte growth factor receptor; experiment: Inhibition of c-MET overexpressed in human GTL-16 cells assessed as phosphorylation at C-terminal Y1235 after 2 hrs by Western blot analysis; assay type: cell-based
[16] = Inhibition of potassium channel IKr
[17] = system: GTL 16; experiment: Antitumor activity against human GTL16 cells xenografted in CD1 nu/nu mouse assessed as suppression of tumor growth at 200 mg/kg, po QD; assay type: functional, organism-based; parameters: dose 200 mg/kg
[18] = biological target: T1, Hepatocyte growth factor receptor; experiment: Binding affinity to human recombinant His6-tagged phosphorylated c-Met cytosolic domain
[19] = Half life in monkey at 0.25 mg/kg, iv; assay type: ADME, organism-based, Macaca mulatta; parameters: dose 0.25 mg/kg, route intravenous; conditions: rhesus monkey, in vivo
[20] = AUC (0 to infinity) in mouse at 2 mg/kg, po; assay type: ADME, organism-based; parameters: time infinity, dose 2 mg/kg, route oral; conditions: plasma
[21] = Solubility of the compound at pH 7.4; assay type: physicochemical; conditions: buffer
[22] = biological target: Hepatocyte growth factor receptor (Homo sapiens, UniProt P08581, Y1235D)
[23] = biological target: Vascular endothelial growth factor receptor 2 (Homo sapiens, UniProt P35968); experiment: Inhibition of human KDR
[24] = biological target: Tyrosine-protein kinase JAK2 (Homo sapiens, UniProt O60674); experiment: Inhibition of human JAK2

CN(C[C@@H]1COCCO1)S(=O)(=O)Nc1ccc2ccc3ncc(-c4cnn(C)c4)cc3c(=O)c2c1 [MK-2461]
inhibition [1]: Active | IC50 [2]: 10 nM | Activity [3]: Non-toxic | IC50 [4]: 290 nM | IC50 [5]: 100 nM | IC50 [6]: 1200 nM | IC50 [7]: 0.4 nM | IC50 [8]: 22 nM | IC50 [9]: 900 nM | IC50 [10]: 7 nM | Cmax [11]: 4.2 µM | clearance [12]: 8.4 mL/min/kg | IC50 [13]: 24 nM | AUC(0-inf) [14]: 11.8 µM·h | IC50 [15]: > 2500 nM | IC50 [16]: > 30000 nM | Activity [17]: Active | Kd [18]: 4 nM | half-life [19]: 48 min | AUC(0-inf) [20]: 0.6 µM·h | solubility [21]: 3 µg/mL (≈ 6.05 µM) | IC50 [22]: 0.5 nM | IC50 [23]: 44 nM | IC50 [24]: 230 nM
